Source: patent US20260191835A1, “COMBINATIONS COMPRISING A MENIN-MLL INHIBITOR AND AT LEAST ONE OTHER THERAPEUTIC AGENT” (JANSSEN PHARMACEUTICA NV, priority 2022, published 2026)

Tested on: MOLM-13 cells
Experiment: In vitro proliferation (Cell Titer Glo, 6 days) of Compound 51 in combination with gilteritinib, midostaurin, idarubicin or decitabine, MOLM-13
Type: cell-based, human
Design: key to maxR call (synergy/antagonism), combination with Gilteritinib on MOLM-13 cell proliferation / Synergy/antagonism call (maxR test), MOLM-13 Cell Proliferation: synergy is indicated by “**”; antagonism is indicated by “*”; no asterisk: absence of any asterisk indicates an additive effect
Experimental: 3) In Vitro Proliferation—Menin-MLL Inhibitor in Combination with FLT3 Inhibitor (Gilteritinib or Midostaurin), DNA Intercalating Agent (Idarubicin) or Hypomethylating Agent (Decitabine)
The effect of Compound 51 in combination with gilteritinib, midostaurin, idarubicin or decitabine was determined in proliferation assays.
AML cell lines MOLM-13, OCI-AML3 and MV4-11 were purchased from DSMZ. MOLM-13 were grown in RPMI medium supplemented with 10% Fetal Bovine Serum (FBS) and 1% penicillin/streptomycin. MV4-11 cells were grown in IMDM medium supplemented with 10% FBS and 1% penicillin/streptomycin. OCI-AML3 cells were cultured in 80-90% alpha-MEM (with or without ribo- and deoxyribonucleosides)+10-20% FBS. All cell lines were cultured at 37° C. in 5% CO2 atmosphere.
AML cell lines (10-20×10^3 cells/well) were seeded in 96-well plates and grown for 6 days in serum (10%)-containing medium in the presence or absence of inhibitors at the indicated concentrations. Proliferation was analyzed by means of a Cell Titer Glo assay using the […] (Promega, Madison, WI, USA), according to the manufacturer's instructions. Data are mean with standard deviation from two to four independent experiments in technical triplicates.
R-based Biochemically Intuitive Generalized Loewe (BIGL) model implemented with a highest single agent (HSA) null model. Specifically, the BIGL methodology was applied to calculate drug-drug interactions (Van der Borght, K., Tourny, A., Bagdziunas, R. et al. BIGL: Biochemically Intuitive Generalized Loewe null model for prediction of the expected combined effect compatible with partial agonism and antagonism. Sci Rep 7, 17935 (2017); Thas, O., Tourny, A., Verbist, B., Hawinkel, S., Nazarov, M., Mutambanengwe, K., & Bijnens, L. Statistical detection of synergy: New methods and a comparative study. Pharmaceutical Statistics (2021)).
Synergy matrix results of the BIGL analysis of the cell line data with HSA as mean model calculated on the basis of the cellular metabolic activity using Cell Titer-Glo assay. Bootstrap confidence intervals are indicated. Effect sizes and their confidence intervals are shown. […] No significant average effect if zero is included in the interval.

[1] = Compound 51 0.05 μm, Gilteritinib 0.01 μM
[2] = Compound 51 0.1 μm + Decitabine 0.015 μM
[3] = Compound 51 0.1 μm + Decitabine 0.15 μM
[4] = Compound 51 0.1 μm + Idarubicin 0.001 μM
[5] = Compound 51 0.1 μm + Midostaurin 0.006 μM
[6] = Compound 51 0.1 μm + Midostaurin 0.025 μM
[7] = Compound 51 0.1 μm, Gilteritinib 0.01 μM
[8] = Compound 51 1 μm + Decitabine 0.15 μM
[9] = Compound 51 1 μm + Idarubicin 0.001 μM
[10] = Compound 51 1 μm + Midostaurin 0.006 μM
[11] = Compound 51 1 μm + Midostaurin 0.025 μM
[12] = Compound 51 10 μm + Decitabine 0.015 μM
[13] = Compound 51 10 μm + Decitabine 0.15 μM
[14] = Compound 51 10 μm, Gilteritinib 0.01 μM
[15] = Compound 51 10 μm, Gilteritinib 0.05 μM

CC(=O)N1CCC(CN2CC[C@@H](Cc3cn(-c4ccc(F)cc4C(=O)N(C)C(C)C)c4cncc(C)c34)C2)CC1 [Compound 51]
Effect size (BIGL, HSA null model), combination with Gilteritinib on MOLM-13 cell proliferation (Compound 51 0.05 μm, Gilteritinib 0.005 μM): −0.14 | Effect size (BIGL, HSA null model), combination with Gilteritinib on MOLM-13 cell proliferation [1]: −0.32 | maxR call (synergy/antagonism), combination with Gilteritinib on MOLM-13 cell proliferation [1]: ** | Effect size (BIGL, HSA null model), combination with Gilteritinib on MOLM-13 cell proliferation (Compound 51 0.05 μm, Gilteritinib 0.05 μM): −0.22 | Effect size (BIGL, HSA null model), combination with Gilteritinib on MOLM-13 cell proliferation (Compound 51 0.05 μm, Gilteritinib 0.1 μM): −0.14 | Effect size (BIGL, HSA null model), combination with Gilteritinib on MOLM-13 cell proliferation (Compound 51 0.05 μm, Gilteritinib 1 μM): −0.01 | Effect size (BIGL, HSA null model), MOLM-13 Cell Proliferation (Compound 51 0.1 μm + Decitabine 0.0015 μM): −0.01 | Effect size (BIGL, HSA null model), MOLM-13 Cell Proliferation [2]: −0.33 | Synergy/antagonism call (maxR test), MOLM-13 Cell Proliferation [2]: ** | Effect size (BIGL, HSA null model), MOLM-13 Cell Proliferation [3]: −0.35 | Synergy/antagonism call (maxR test), MOLM-13 Cell Proliferation [3]: ** | Effect size (BIGL, HSA null model), MOLM-13 Cell Proliferation (Compound 51 0.1 μm + Decitabine 1.5 μM): −0.05 | Effect size (BIGL, HSA null model), MOLM-13 Cell Proliferation (Compound 51 0.1 μm + Decitabine 3 μM): −0.03 | Effect size (BIGL, HSA null model), MOLM-13 Cell Proliferation (Compound 51 0.1 μm + Idarubicin 0.0005 μM): −0.13 | Effect size (BIGL, HSA null model), MOLM-13 Cell Proliferation [4]: −0.42 | Synergy/antagonism call (maxR test), MOLM-13 Cell Proliferation [4]: ** | Effect size (BIGL, HSA null model), MOLM-13 Cell Proliferation (Compound 51 0.1 μm + Idarubicin 0.0025 μM): −0.23 | Effect size (BIGL, HSA null model), MOLM-13 Cell Proliferation (Compound 51 0.1 μm + Idarubicin 0.005 μM): −0.11 | Effect size (BIGL, HSA null model), MOLM-13 Cell Proliferation (Compound 51 0.1 μm + Idarubicin 0.05 μM): 0.02 | Effect size (BIGL, HSA null model), MOLM-13 Cell Proliferation (Compound 51 0.1 μm + Idarubicin 0.5 μM): 0.02 | Effect size (BIGL, HSA null model), MOLM-13 Cell Proliferation (Compound 51 0.1 μm + Midostaurin 0.0012 μM): −0.08 | Effect size (BIGL, HSA null model), MOLM-13 Cell Proliferation [5]: −0.23 | Synergy/antagonism call (maxR test), MOLM-13 Cell Proliferation [5]: ** | Effect size (BIGL, HSA null model), MOLM-13 Cell Proliferation [6]: −0.17 | Synergy/antagonism call (maxR test), MOLM-13 Cell Proliferation [6]: ** | Effect size (BIGL, HSA null model), MOLM-13 Cell Proliferation (Compound 51 0.1 μm + Midostaurin 0.05 μM): −0.08 | Effect size (BIGL, HSA null model), MOLM-13 Cell Proliferation (Compound 51 0.1 μm + Midostaurin 0.1 μM): −0.04 | Effect size (BIGL, HSA null model), MOLM-13 Cell Proliferation (Compound 51 0.1 μm + Midostaurin 0.5 μM): −0.02 | Effect size (BIGL, HSA null model), combination with Gilteritinib on MOLM-13 cell proliferation (Compound 51 0.1 μm, Gilteritinib 0.0005 μM): −0.03 | Effect size (BIGL, HSA null model), combination with Gilteritinib on MOLM-13 cell proliferation (Compound 51 0.1 μm, Gilteritinib 0.005 μM): −0.13 | Effect size (BIGL, HSA null model), combination with Gilteritinib on MOLM-13 cell proliferation [7]: −0.3 | maxR call (synergy/antagonism), combination with Gilteritinib on MOLM-13 cell proliferation [7]: ** | Effect size (BIGL, HSA null model), combination with Gilteritinib on MOLM-13 cell proliferation (Compound 51 0.1 μm, Gilteritinib 0.05 μM): −0.24 | Effect size (BIGL, HSA null model), combination with Gilteritinib on MOLM-13 cell proliferation (Compound 51 0.1 μm, Gilteritinib 0.1 μM): −0.14 | Effect size (BIGL, HSA null model), combination with Gilteritinib on MOLM-13 cell proliferation (Compound 51 0.1 μm, Gilteritinib 1 μM): −0.01 | Effect size (BIGL, HSA null model), MOLM-13 Cell Proliferation (Compound 51 1 μm + Decitabine 0.0015 μM): 0.03 | Effect size (BIGL, HSA null model), MOLM-13 Cell Proliferation (Compound 51 1 μm + Decitabine 0.015 μM): −0.1 | Effect size (BIGL, HSA null model), MOLM-13 Cell Proliferation [8]: −0.38 | Synergy/antagonism call (maxR test), MOLM-13 Cell Proliferation [8]: ** | Effect size (BIGL, HSA null model), MOLM-13 Cell Proliferation (Compound 51 1 μm + Idarubicin 0.0005 μM): −0.08 | Effect size (BIGL, HSA null model), MOLM-13 Cell Proliferation [9]: −0.38 | Synergy/antagonism call (maxR test), MOLM-13 Cell Proliferation [9]: ** | Effect size (BIGL, HSA null model), MOLM-13 Cell Proliferation (Compound 51 1 μm + Idarubicin 0.0025 μM): −0.24 | Effect size (BIGL, HSA null model), MOLM-13 Cell Proliferation (Compound 51 1 μm + Idarubicin 0.005 μM): −0.11 | Effect size (BIGL, HSA null model), MOLM-13 Cell Proliferation (Compound 51 1 μm + Idarubicin 0.05 μM): 0.02 | Effect size (BIGL, HSA null model), MOLM-13 Cell Proliferation (Compound 51 1 μm + Idarubicin 0.5 μM): 0.02 | Effect size (BIGL, HSA null model), MOLM-13 Cell Proliferation (Compound 51 1 μm + Midostaurin 0.0012 μM): −0.03 | Effect size (BIGL, HSA null model), MOLM-13 Cell Proliferation [10]: −0.18 | Synergy/antagonism call (maxR test), MOLM-13 Cell Proliferation [10]: ** | Effect size (BIGL, HSA null model), MOLM-13 Cell Proliferation [11]: −0.19 | Synergy/antagonism call (maxR test), MOLM-13 Cell Proliferation [11]: ** | Effect size (BIGL, HSA null model), MOLM-13 Cell Proliferation (Compound 51 1 μm + Midostaurin 0.05 μM): −0.08 | Effect size (BIGL, HSA null model), MOLM-13 Cell Proliferation (Compound 51 1 μm + Midostaurin 0.1 μM): −0.04 | Effect size (BIGL, HSA null model), MOLM-13 Cell Proliferation (Compound 51 1 μm + Midostaurin 0.5 μM): −0.02 | Effect size (BIGL, HSA null model), combination with Gilteritinib on MOLM-13 cell proliferation (Compound 51 1 μm, Gilteritinib 0.0005 μM): 0.03 | Effect size (BIGL, HSA null model), combination with Gilteritinib on MOLM-13 cell proliferation (Compound 51 1 μm, Gilteritinib 0.005 μM): −0.1 | Effect size (BIGL, HSA null model), combination with Gilteritinib on MOLM-13 cell proliferation (Compound 51 1 μm, Gilteritinib 0.01 μM): −0.22 | Effect size (BIGL, HSA null model), combination with Gilteritinib on MOLM-13 cell proliferation (Compound 51 1 μm, Gilteritinib 0.05 μM): −0.25 | Effect size (BIGL, HSA null model), combination with Gilteritinib on MOLM-13 cell proliferation (Compound 51 1 μm, Gilteritinib 0.1 μM): −0.14 | Effect size (BIGL, HSA null model), combination with Gilteritinib on MOLM-13 cell proliferation (Compound 51 1 μm, Gilteritinib 1 μM): −0.01 | Effect size (BIGL, HSA null model), MOLM-13 Cell Proliferation (Compound 51 10 μm + Decitabine 0.0015 μM): −0.06 | Effect size (BIGL, HSA null model), MOLM-13 Cell Proliferation [12]: −0.16 | Synergy/antagonism call (maxR test), MOLM-13 Cell Proliferation [12]: ** | Effect size (BIGL, HSA null model), MOLM-13 Cell Proliferation [13]: −0.38 | Synergy/antagonism call (maxR test), MOLM-13 Cell Proliferation [13]: ** | Effect size (BIGL, HSA null model), MOLM-13 Cell Proliferation (Compound 51 10 μm + Decitabine 1.5 μM): −0.05 | Effect size (BIGL, HSA null model), MOLM-13 Cell Proliferation (Compound 51 10 μm + Decitabine 3 μM): −0.03 | Effect size (BIGL, HSA null model), combination with Gilteritinib on MOLM-13 cell proliferation (Compound 51 10 μm, Gilteritinib 0.0005 μM): −0.05 | Effect size (BIGL, HSA null model), combination with Gilteritinib on MOLM-13 cell proliferation (Compound 51 10 μm, Gilteritinib 0.005 μM): −0.17 | Effect size (BIGL, HSA null model), combination with Gilteritinib on MOLM-13 cell proliferation [14]: −0.26 | maxR call (synergy/antagonism), combination with Gilteritinib on MOLM-13 cell proliferation [14]: ** | Effect size (BIGL, HSA null model), combination with Gilteritinib on MOLM-13 cell proliferation [15]: −0.27 | maxR call (synergy/antagonism), combination with Gilteritinib on MOLM-13 cell proliferation [15]: ** | Effect size (BIGL, HSA null model), combination with Gilteritinib on MOLM-13 cell proliferation (Compound 51 10 μm, Gilteritinib 0.1 μM): −0.14 | Effect size (BIGL, HSA null model), combination with Gilteritinib on MOLM-13 cell proliferation (Compound 51 10 μm, Gilteritinib 1 μM): −0.01 | combination effect on proliferation at low doses of Midostaurin (in combination with Midostaurin 6 to 25 nM, MOLM-13): synergized | combination effect on proliferation (cytotoxicity) (in combination with decitabine, MOLM-13, 6-day CellTiter-Glo matrix): synergistically cytotoxic | combination effect on proliferation at low doses of gilteritinib (in combination with gilteritinib 500 pM, MOLM-13): synergistic effect | combination effect on proliferation (cytotoxicity) (in combination with gilteritinib, MOLM-13, 6-day CellTiter-Glo matrix): not antagonistically cytotoxic | combination effect on proliferation (cytotoxicity) (in combination with idarubicin, MOLM-13, 6-day Cell Titer-Glo matrix): synergistically cytotoxic | combination effect on proliferation (cytotoxicity) (in combination with midostaurin, MOLM-13, 6-day CellTiter-Glo matrix): not antagonistically cytotoxic
